Assay results from patent US8129397B2, “Substituted thieno[2,3-d]pyrimidines as AMPA modulators” (MSD Oss B.V., priority 2007, dated 2012).

Key:
AMPA (GluR1) receptor = biological target: T1, AMPA (GluR1) receptor (Homo sapiens, UniProt P42261); assay: Ca2+ influx fluorescence assay (FLEXstation, HEK.GluR1(i) cells); format: cell-based; details: Ca2+ influx in the presence of glutamate, Fluo-3, read-out: EC50, positive modulation of the AMPA receptor
T1 construct: expressed in transfected cells; host or cells: HEK cells (HEK.GluR1(i)), kept under hygromycin selection
T1 sequence (P42261 19-906 isoform P42261-2 limits assumed, species assumed): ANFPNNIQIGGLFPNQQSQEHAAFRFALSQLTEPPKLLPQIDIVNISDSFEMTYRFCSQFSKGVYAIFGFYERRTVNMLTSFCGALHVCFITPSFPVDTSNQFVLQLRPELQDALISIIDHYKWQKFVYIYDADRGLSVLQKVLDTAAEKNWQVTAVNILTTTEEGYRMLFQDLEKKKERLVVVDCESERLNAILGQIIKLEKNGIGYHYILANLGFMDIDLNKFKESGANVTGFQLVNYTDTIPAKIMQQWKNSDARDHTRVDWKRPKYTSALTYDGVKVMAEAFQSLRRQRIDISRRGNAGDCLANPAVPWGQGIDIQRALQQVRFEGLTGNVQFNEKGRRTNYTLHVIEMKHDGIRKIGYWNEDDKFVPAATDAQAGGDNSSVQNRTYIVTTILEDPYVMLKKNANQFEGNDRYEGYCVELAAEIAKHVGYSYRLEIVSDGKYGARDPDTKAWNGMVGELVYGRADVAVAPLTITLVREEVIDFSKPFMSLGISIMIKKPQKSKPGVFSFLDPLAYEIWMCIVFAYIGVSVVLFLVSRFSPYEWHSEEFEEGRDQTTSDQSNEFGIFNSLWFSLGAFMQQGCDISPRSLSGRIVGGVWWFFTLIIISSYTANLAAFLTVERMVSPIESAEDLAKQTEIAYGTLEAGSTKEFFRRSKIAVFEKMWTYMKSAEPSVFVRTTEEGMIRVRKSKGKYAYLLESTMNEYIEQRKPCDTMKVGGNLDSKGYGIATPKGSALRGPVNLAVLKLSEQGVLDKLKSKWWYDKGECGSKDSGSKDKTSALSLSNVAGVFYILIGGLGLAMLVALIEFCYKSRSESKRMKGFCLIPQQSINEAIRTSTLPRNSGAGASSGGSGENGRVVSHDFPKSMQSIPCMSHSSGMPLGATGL
Text: A: Ca^2+ Influx Fluorescence Assays
The compounds in this invention may be tested using a biological assay which measures Ca^2+ influx mediated through positive modulation of the AMPA (GluR1) receptor using standard techniques in the art such as, but not limited to, a FLEXstation (manufactured by Molecular Devices, Sunnyvale, Calif.). An optical readout using fluorescent probes is employed to measure ion channel dependent changes in intracellular ion concentration or membrane potential. The assay utilises the Ca^2+ conductance of functional homomeric GluR1(i) AMPA receptors to generate glutamate-dependent Ca^2+ responses. Influx of Ca^2+ through the ion channel is measured indirectly through an increase in intracellular Ca^2+ levels using the calcium sensitive dye such as, but not limited to, Fluo-3 (Molecular Devices, Sunnyvale, Calif.) in FLEXstation. A positive AMPA receptor modulator, in the presence of glutamate, will result in an influx of Ca^2+ through the ion channel which can be measured indirectly through an increase in intracellular Ca^2+ levels using the calcium sensitive dye Fluo-3 in FLEXstation.
HEK.GluR1(i) cells were maintained in DMEM supplemented with 10% fetaclone II, 1% non-essential amino acids and 150 μg/mL hygromycin, at 37° C./5% CO2. […]

[1] = test system: postnatal rat cortical neurones; assay: Whole cell patch clamp recording of glutamate-evoked currents; format: cell-based; details: at 10 μM compound, glutamate 0.5 mM, holding potential −60 mV
Procedure: B: Patch Clamp Recording.
The whole cell configuration of the patch clamp technique (Hamill et al., Pflugers Arch. 1981, […], 85-100) was used to measure glutamate-evoked currents from postnatal rat cortical neurones. A glass coverslip containing the culture was transferred to the recording chamber (Warner Instrument Corp., Hamden, Conn.) mounted on the stage of an inverted microscope (Nikon, Kingston, UK). The recording chamber contained 1-2 ml extracellular solution (145 mM NaCl, 5.4 mM KCl, 10 mM HEPES, 0.8 mM MgCl2, 1.8 CaCl2, 10 mM glucose and 30 mM sucrose, adjusted to pH 7.4 with 1M NaOH) and was constantly perused at a rate of 1 ml/min. Recordings were performed at room temperature (20-22° C.) using an Axopatch 200B amplifier (Axon Instruments Ltd., Foster City, Calif.). Data acquisition and analysis was performed using Signal software (Cambridge Electronic Design Ltd., Cambridge, UK). Pipettes were manufactured from GC120F-10 glass (Harvard Apparatus, Edenbridge UK) using a model P-87 electrode puller (Sutter Instruments Co., Novarto, Calif.). The patch electrodes had typical resistances of between 3-5 MQ when filled with intracellular solution (140 mM potassium gluconate, 20 mM HEPES, 1.1 mM EGTA, 5 mM phosphocreatine, 3 mM ATP, 0.3 mM GTP, 0.1 mM Caca2, 5 mM MgCl2, adjusted to pH 7.4 with 1M KOH). […]

In the case of `Cc1cc2c(=O)[nH]c(Cn3cc(CNCc4nccs4)c(C(F)(F)F)n3)nc2s1` [Example 1, 6-Methyl-2-((4-((thiazol-2-ylmethylamino)methyl)-3-(trifluoromethyl)-1H-pyrazol-1-yl)methyl)thieno[2,3-d]pyrimidin-4(3H)-one], the EC50 (AMPA (GluR1) receptor) is reported as 1000 nM and the “percentage increase in steady state current” value [1] is reported as 235±44%.
